The values that follow come from publication PMC11855827, “High-Throughput Screening of Five Compound Libraries for Anthelmintic Activity and Toxicity Leads to the Discovery of Two Flavonoid Compounds” (International Journal of Molecular Sciences, 2025).

For the assay, the system named is C. elegans. As to the kind of experiment: microbe, parasite or virus in culture. The note with it: Caenorhabditis elegans.
Setting [1] is: 0 h, read-out: Percentage of motility inhibition 0 h, Table S2, C. elegans SS assay, 110 μM, 0 h, averages of 4 data points.
Where [2] appears, read: 24 h, read-out: Percentage of motility inhibition 24 h, Table S2, C. elegans SS assay, 110 μM, 24 h, averages of 4 data points.
[3] abbreviates: 0 h, read-out: Percentage of motility inhibition 0 h.
The mark [4] stands for this setting: 24 h, read-out: Percentage of motility inhibition 24 h.

Structures can show the parent of a compound that is named as a salt. Where two headings read alike, the source gives them in different places.

`C[C@@H]1O[C@@H](O[C@H]2[C@H](Oc3cc(O)c4c(=O)cc(-c5ccc(O)c(O)c5)oc4c3)O[C@H](CO)[C@@H](O)[C@@H]2O)[C@H](O)[C@H](O)[C@H]1O` [Lonicerin]: the inhibition at 110 µM runs as follows: under setting [1], 2%; under setting [2], 2%.
In the case of `Cc1cccc(C)c1OCC(=O)N[C@@H](Cc1ccccc1)[C@@H](O)C[C@H](Cc1ccccc1)NC(=O)[C@H](C(C)C)N1CCCNC1=O` [Lopinavir], the inhibition at 110 µM was 17% under setting [1] and 14% under setting [2].
The matching figures for `N#C/C(=C1/SC[C@@H](c2ccc(Cl)cc2Cl)S1)n1ccnc1` [Luliconazole]: 3% and 7%.
The matching figures for `CCCCN(CCCC)CC(O)c1cc(Cl)cc2c1-c1ccc(Cl)cc1/C2=C/c1ccc(Cl)cc1` (centres unmarked) [Lumefantrine]: 0% and 0%.
The corresponding values for `C=C(C)[C@@H]1CC[C@]2(C)CC[C@]3(C)[C@H](CC[C@@H]4[C@@]5(C)CCC(=O)C(C)(C)[C@@H]5CC[C@]43C)[C@@H]12` [Lupenone] are 25% and 17%.
With `C=C(C)[C@@H]1CC[C@]2(C)CC[C@]3(C)[C@H](CC[C@@H]4[C@@]5(C)CC[C@H](O)C(C)(C)[C@@H]5CC[C@]43C)[C@@H]12` [Lupeol], the inhibition at 110 µM runs as follows: under setting [1], 0%; under setting [2], 0%.
With `CC1=C[C@H](O)CC(C)(C)[C@H]1/C=C/C(C)=C/C=C/C(C)=C/C=C/C=C(C)/C=C/C=C(C)/C=C/C1=C(C)C[C@@H](O)CC1(C)C` [Lutein], the inhibition at 110 µM by setting is: under setting [3], 13%; under setting [4], 0%.
In the case of `O=c1cc(-c2ccc(O)c(O)c2)oc2cc(O)cc(O)c12` [Luteolin], the inhibition at 110 µM is, setting by setting: under setting [1], 4%; under setting [2], 0%.
The matching figures for `COc1ccc2c3c1O[C@H]1C[C@@H](O)CC[C@]31CCN(C)C2` [Lycoramine]: 0% and 0%.
For `O[C@H]1[C@H]2c3cc4c(cc3CN3CCC(=C[C@@H]1O)[C@H]23)OCO4` [Lycorine], the inhibition at 110 µM under setting [1] was determined as 34% and the inhibition at 110 µM under setting [2] came to 0%.
On to `CN1[C@@H]2CC[C@H]1C[C@@H](OC(=O)[C@H](CO)c1ccccc1)C2` [L‐Hyoscyamine], for which the inhibition at 110 µM is, setting by setting: under setting [3], 16%; under setting [4], 12%.
Turning to `C[C@H]1[C@H](C)CC[C@]2(C(=O)O)CC[C@]3(C)C(=CC[C@@H]4[C@@]5(C)C[C@@H](O)[C@H](O)[C@@](C)(CO)[C@@H]5[C@H](O)C[C@]43C)[C@H]12` [Madecassic acid], the inhibition at 110 µM runs as follows: under setting [1], 1%; under setting [2], 31%.
The corresponding values for `C=CCc1ccc(O)c(-c2cc(CC=C)ccc2O)c1` [Magnolol] are 0% and 14%.
The matching figures for `O=C1C=CC(=O)N1` [Maleimide]: 25% and 32%.
`O=C(O)CC(O)C(=O)O` (centres unmarked) [Malic acid]: the inhibition at 110 µM under setting [1] worked out at 2% and the inhibition at 110 µM under setting [2] worked out at 14%.
With `C=C1[C@@H]2CC[C@@H]3[C@](C2)(C(=O)[C@@H](O)[C@@H]2C(C)(C)[C@H]4CC(=O)[C@@]32CO4)[C@@H]1OC(C)=O` [Maoecrystal A], the inhibition at 110 µM was found to be 7% under setting [1] and 2% under setting [2].
The corresponding values for `CN1CCN(c2c(F)cc3c(=O)c(C(=O)O)cn4c3c2OCN4C)CC1` [Marbofloxacin] are 23% and 9%.
The corresponding values for `CC1(C)CC[C@]2(C(=O)O)CC[C@]3(C)C(=CC[C@@H]4[C@@]5(C)C[C@@H](O)[C@H](O)C(C)(C)[C@@H]5CC[C@]43C)[C@@H]2C1` [Maslinic acid] are 0% and 5%.
The matching figures for `C[C@H](Cc1ccc(O)c(O)c1)[C@@H](C)Cc1ccc(O)c(O)c1` [Masoprocol]: 7% and 17%.
Regarding `O=C1CCC[C@@H]2[C@H]3CCCN4CCC[C@@H](CN12)[C@@H]34` [Matrine], the inhibition at 110 µM under setting [2] turned out to be 2%.
Consider `COc1cc2cc(c1Cl)N(C)C(=O)CC(O)C1(C)OC1C(C)C1CC(O)(NC(=O)O1)C(OC)/C=C/C=C(\C)C2` (centres unmarked) [Maytansinol], for which the inhibition at 110 µM under setting [1] was determined as 0% and the inhibition at 110 µM under setting [2] amounted to 0%.
With `COC(=O)Nc1nc2ccc(C(=O)c3ccccc3)cc2[nH]1` [Mebendazole], the inhibition at 110 µM under setting [1] worked out at 18% and the inhibition at 110 µM under setting [2] turned out to be 37%.
The matching figures for `CC(=O)O[C@]1(C(C)=O)CC[C@H]2[C@@H]3C[C@H](C)C4=CC(=O)CC[C@]4(C)[C@H]3CC[C@@]21C` [Medroxyprogesterone acetate]: 11% and 6%.
As to `CN1C(=O)/C(=C2/C(=O)Nc3ccccc32)c2ccccc21` [Meisoindigo], the inhibition at 110 µM runs as follows: under setting [1], 0%; under setting [2], 0%.
For the molecule `COc1ccc2[nH]cc(CCNC(C)=O)c2c1` [Melatonin], the inhibition at 110 µM runs as follows: under setting [1], 66%; under setting [2], 24%.
The matching figures for `CC1=CC(=O)c2ccccc2C1=O` [Menadione]: 0% and 0%.
The corresponding values for `CC(C)[C@@H]1CC[C@@H](C)CC1=O` [Menthone] are 17% and 17%.
The matching figures for `COc1ccc(O)cc1` [Mequinol]: 16% and 11%.
With `COc1c2occc2cc2ccc(=O)oc12` [Methoxsalen], the inhibition at 110 µM under setting [1] was determined as 23% and the inhibition at 110 µM under setting [2] is 5%.
For `COC(=O)c1ccccc1O` [Methyl Salicylate], the inhibition at 110 µM reads like this: under setting [1], 21%; under setting [2], 12%.
The matching figures for `COC(=O)[C@]12CCCC(C)(C)[C@@H]1CCc1cc(C(C)C)c(O)c(O)c12` [Methyl carnosate]: 0% and 63%.
Take `COC(=O)c1cccnc1` [Methyl nicotinate]: the inhibition at 110 µM by setting is: under setting [3], 0%; under setting [4], 0%.
`Cc1ncc([N+](=O)[O-])n1CCO` [Metronidazole]: the inhibition at 110 µM under setting [1] is 34% and the inhibition at 110 µM under setting [2] was 14%.
With `C=C1C(=O)O[C@H]2[C@H]1CCC(C)=C1CC[C@@](C)(O)[C@@H]12` [Micheliolide], the inhibition at 110 µM by setting is: under setting [1], 0%; under setting [2], 0%.
For the molecule `CCC(=O)O[C@@H]1CC(=O)O[C@H](C)C/C=C/C=C/[C@H](O)[C@H](C)C[C@H](CC=O)[C@H](O[C@@H]2O[C@H](C)[C@@H](O[C@H]3C[C@@](C)(O)[C@@H](OC(=O)CC)[C@H](C)O3)[C@H](N(C)C)[C@H]2O)[C@H]1OC` [Midecamycin], the inhibition at 110 µM under setting [1] is 16% and the inhibition at 110 µM under setting [2] is 14%.
The corresponding values for `CC(C)C1=Cc2ccc3c(c2C(=O)C1=O)CCCC3(C)C` [Miltirone] are 0% and 36%.
The corresponding values for `NC(=O)c1ncn([C@@H]2O[C@H](CO)[C@@H](O)[C@H]2O)c1O` [Mizoribine] are 28% and 29%.
The corresponding values for `C[C@H](CC[C@@H](O)C(C)(C)O)[C@H]1CC[C@@]2(C)[C@@H]3CC=C4[C@@H](CC[C@H](O)C4(C)C)[C@]3(C)[C@H](O)C[C@]12C` [Mogrol] are 5% and 2%.
Take `COC(=O)c1c2c(c3ccccc3c1O)OC(C)(C)C=C2` [Mollugin]: the inhibition at 110 µM under setting [1] was found to be 1% and the inhibition at 110 µM under setting [2] was determined as 12%.
With `C[C@H]1C(=O)O[C@@H]2CC[N+]3([O-])CC=C(COC(=O)[C@](C)(O)[C@]1(C)O)[C@H]23` (some centres unmarked) [Monocrotaline N‐Oxide], the inhibition at 110 µM amounted to 0% under setting [1] and 0% under setting [2].
As to `COC(=O)/C=C/C(=O)O` [Monomethyl fumarate], the inhibition at 110 µM worked out at 0% under setting [1] and 15% under setting [2].
The matching figures for `O=c1c(O)c(-c2ccc(O)cc2O)oc2cc(O)cc(O)c12` [Morin]: 44% and 17%.
The matching figures for `COC(=O)C1=CO[C@@H](O[C@@H]2O[C@H](CO)[C@@H](O)[C@H](O)[C@H]2O)[C@@H]2[C@H](C)O[C@@H](O)C[C@H]12` [Morroniside]: 5% and 42%.
The corresponding values for `CC(C)=CCc1c(-c2ccc(O)cc2O)oc2c3c(cc(O)c2c1=O)OC(C)(C)C=C3` [Morusin] are 33% and 14%.
On to `C[C@@]12C[C@@]3(O)O[C@@H](O1)[C@]1(COC(=O)c4ccc(O)cc4)[C@@H]3C[C@]12O[C@@H]1O[C@H](COC(=O)c2ccccc2)[C@@H](O)[C@H](O)[C@H]1O` [Mudanpioside C], for which the inhibition at 110 µM under setting [1] is 23% and the inhibition at 110 µM under setting [2] worked out at 41%.
The corresponding values for `C/C(=C\C(=O)OCCCCCCCCC(=O)O)C[C@@H]1OC[C@H](C[C@@H]2O[C@H]2[C@@H](C)[C@H](C)O)[C@@H](O)[C@H]1O` [Mupirocin] are 10% and 11%.
The corresponding values for `CCCCC(C#N)(Cn1cncn1)c1ccc(Cl)cc1` (centres unmarked) [Myclobutanil] are 30% and 12%.
The corresponding values for `c1cncc(C2=NCCC2)c1` [Myosmine] are 18% and 24%.
Consider `C=CC(=C)CCC=C(C)C` [Myrcene], for which the inhibition at 110 µM by setting is: under setting [1], 8%; under setting [2], 23%.
`O=c1c(O)c(-c2cc(O)c(O)c(O)c2)oc2cc(O)cc(O)c12` [Myricetin]: the inhibition at 110 µM was 30% under setting [3] and 7% under setting [4].
With `CC1CCc2c(N3CCC(O)CC3)c(F)cc3c(=O)c(C(=O)O)cn1c23` (centres unmarked) [Nadifloxacin], the inhibition at 110 µM is 0% under setting [1] and 0% under setting [2].

What is called inhibition is the share of the control response that was lost under treatment.
